Reference: US6358885B1, “Substituted phenylheterocyclic herbicides” (Mississippi State University, priority 1992, dated 2002)

Legend:
Assay in all cases: Test G preemergence/postemergence greenhouse plant response rating 0 to 100
broadleaf signalgrass = format: in vivo, Brachiaria plantaginea; conditions: 0 to 100 scale
Excerpt: (§1) Seeds, rhizomes, or plant parts of alfalfa (Medicago ativa), annual bluegrass (Poa annua), bermudagrass (Cynodon dactylon), broadleaf signalgrass (Brachiaria plantaginea), common purslane (Portulaca oleracea), common ragweed (Ambrosia elatior), […] (Paspalum dilatatum), goosegrass (Eleusine indica), guineagrass (Panicum maximum), […] exaltata), johnsongrass (Sorghum halepense), large crabgrass (Digitaria sanguinalis), peanut (Arachis hypoagaea), pitted morningglory (Ipomoea lacunosa), purple nutsedge (Cyperus rotundus), sandbur (Cenchrus echinatus), smooth crabgrass (Digitaria ischaemum) and yellow nutsedge (Cyperus esculentus) were planted into greenhouse pots containing greenhouse planting medium. Each pot contained only one plant species. The test compound was dissolved in a non-phytotoxic solvent and applied preemergence and/or postemergence to the plants. Preemergence applications were made within one day of planting the seeds or plant parts. Postemergence applications were applied when the plants were in the two to four leaf stage (three to twenty cm). Test chemicals were dissolved in a non-phytotoxic solvent and applied preemergence and postemergence to the plants. Untreated control plants and treated plants were placed in the greenhouse and visually evaluated for injury at 13 to 21 days after herbicide application. […] A dash (-) response indicates no test result.

annual bluegrass = format: in vivo, Poa annua; conditions: 0 to 100 scale
Excerpt: as §1

common purslane = format: in vivo, Portulaca oleracea; conditions: 0 to 100 scale
Excerpt: as §1

yellow nutsedge = format: in vivo, Cyperus esculentus; conditions: Rate 125 g/ha, 0 to 100 scale
Excerpt: as §1

guineagrass = format: in vivo, Panicum maximum; conditions: 0 to 100 scale
Excerpt: as §1

large crabgrass = format: in vivo, Digitaria sanguinalis; conditions: 0 to 100 scale
Excerpt: as §1

pitted morningglory = format: in vivo, Ipomoea lacunosa; conditions: 0 to 100 scale
Excerpt: as §1

alfalfa = format: in vivo, Medicago ativa; conditions: 0 to 100 scale
Excerpt: as §1

goosegrass = format: in vivo, Eleusine indica; conditions: 0 to 100 scale
Excerpt: as §1

itchgrass = format: in vivo, Rottboellia exaltata; conditions: 0 to 100 scale
Excerpt: as §1

dallisgrass = format: in vivo, Paspalum dilatatum; conditions: 0 to 100 scale
Excerpt: as §1

peanut = format: in vivo, Arachis hypoagaea; conditions: 0 to 100 scale
Excerpt: as §1

johnsongrass = format: in vivo, Sorghum halepense; conditions: 0 to 100 scale
Excerpt: as §1

bermudagrass = format: in vivo, Cynodon dactylon; conditions: 0 to 100 scale
Excerpt: as §1

purple nutsedge = format: in vivo, Cyperus rotundus; conditions: Rate 125 g/ha, 0 to 100 scale
Excerpt: as §1

common ragweed = format: in vivo, Ambrosia elatior; conditions: 0 to 100 scale
Excerpt: as §1

sandbur = format: in vivo, Cenchrus echinatus; conditions: 0 to 100 scale
Excerpt: as §1

SMILES: COc1cc(-c2nn3c(c2Cl)CCCC3)c(F)cc1Cl [Compound 29]
- Plant response rating, Brdlf Sgnlgrass (broadleaf signalgrass; POSTEMERGENCE, Rate 125 g/ha): 0
- Plant response rating, Brdlf Sgnlgrass (broadleaf signalgrass; POSTEMERGENCE, Rate 250 g/ha): 0
- Plant response rating, Brdlf Sgnlgrass (broadleaf signalgrass; PREEMERGENCE, Rate 125 g/ha): 0
- Plant response rating, Brdlf Sgnlgrass (broadleaf signalgrass; PREEMERGENCE, Rate 250 g/ha): 0
- Plant response rating, Ann Bluegrass (annual bluegrass; POSTEMERGENCE, Rate 125 g/ha): 0
- Plant response rating, Ann Bluegrass (annual bluegrass; POSTEMERGENCE, Rate 250 g/ha): 0
- Plant response rating, Ann Bluegrass (annual bluegrass; PREEMERGENCE, Rate 125 g/ha): 0
- Plant response rating, Ann Bluegrass (annual bluegrass; PREEMERGENCE, Rate 250 g/ha): 0
- Plant response rating, Cmn Purslane (common purslane; POSTEMERGENCE, Rate 125 g/ha): 90
- Plant response rating, Cmn Purslane (common purslane; POSTEMERGENCE, Rate 250 g/ha): 80
- Plant response rating, Cmn Purslane (common purslane; PREEMERGENCE, Rate 125 g/ha): 0
- Plant response rating, Cmn Purslane (common purslane; PREEMERGENCE, Rate 250 g/ha): 100
- Plant response rating, Yellow Nutsedge (yellow nutsedge; POSTEMERGENCE): 0
- Plant response rating, Yellow Nutsedge (yellow nutsedge; PREEMERGENCE): 0
- Plant response rating, Guineagrass (guineagrass; POSTEMERGENCE, Rate 125 g/ha): 0
- Plant response rating, Guineagrass (guineagrass; POSTEMERGENCE, Rate 250 g/ha): 0
- Plant response rating, Guineagrass (guineagrass; PREEMERGENCE, Rate 125 g/ha): 0
- Plant response rating, Guineagrass (guineagrass; PREEMERGENCE, Rate 250 g/ha): 100
- Plant response rating, Large Crabgrass (large crabgrass; POSTEMERGENCE, Rate 125 g/ha): 0
- Plant response rating, Large Crabgrass (large crabgrass; POSTEMERGENCE, Rate 250 g/ha): 0
- Plant response rating, Large Crabgrass (large crabgrass; PREEMERGENCE, Rate 125 g/ha): 80
- Plant response rating, Large Crabgrass (large crabgrass; PREEMERGENCE, Rate 250 g/ha): 100
- Plant response rating, Pit Morninglory (pitted morningglory; POSTEMERGENCE, Rate 125 g/ha): 0
- Plant response rating, Pit Morninglory (pitted morningglory; POSTEMERGENCE, Rate 250 g/ha): 70
- Plant response rating, Pit Morninglory (pitted morningglory; PREEMERGENCE, Rate 125 g/ha): 0
- Plant response rating, Pit Morninglory (pitted morningglory; PREEMERGENCE, Rate 250 g/ha): 30
- Plant response rating, Alfalfa Var. (alfalfa; POSTEMERGENCE, Rate 125 g/ha): 0
- Plant response rating, Alfalfa Var. (alfalfa; POSTEMERGENCE, Rate 250 g/ha): 70
- Plant response rating, Alfalfa Var. (alfalfa; PREEMERGENCE, Rate 125 g/ha): 0
- Plant response rating, Alfalfa Var. (alfalfa; PREEMERGENCE, Rate 250 g/ha): 0
- Plant response rating, Goosegrass (goosegrass; POSTEMERGENCE, Rate 125 g/ha): 0
- Plant response rating, Goosegrass (goosegrass; POSTEMERGENCE, Rate 250 g/ha): 0
- Plant response rating, Goosegrass (goosegrass; PREEMERGENCE, Rate 125 g/ha): 90
- Plant response rating, Goosegrass (goosegrass; PREEMERGENCE, Rate 250 g/ha): 100
- Plant response rating, Itchgrass (itchgrass; POSTEMERGENCE, Rate 125 g/ha): 0
- Plant response rating, Itchgrass (itchgrass; POSTEMERGENCE, Rate 250 g/ha): 0
- Plant response rating, Itchgrass (itchgrass; PREEMERGENCE, Rate 125 g/ha): 100
- Plant response rating, Itchgrass (itchgrass; PREEMERGENCE, Rate 250 g/ha): 40
- Plant response rating, Dallisgrass (dallisgrass; POSTEMERGENCE, Rate 125 g/ha): 0
- Plant response rating, Dallisgrass (dallisgrass; POSTEMERGENCE, Rate 250 g/ha): 0
- Plant response rating, Dallisgrass (dallisgrass; PREEMERGENCE, Rate 125 g/ha): 80
- Plant response rating, Dallisgrass (dallisgrass; PREEMERGENCE, Rate 250 g/ha): 90
- Plant response rating, Peanuts (peanut; POSTEMERGENCE, Rate 125 g/ha): 0
- Plant response rating, Peanuts (peanut; POSTEMERGENCE, Rate 250 g/ha): 0
- Plant response rating, Peanuts (peanut; PREEMERGENCE, Rate 125 g/ha): 0
- Plant response rating, Peanuts (peanut; PREEMERGENCE, Rate 250 g/ha): 0
- Plant response rating, Johnsongrass (johnsongrass; POSTEMERGENCE, Rate 125 g/ha): 0
- Plant response rating, Johnsongrass (johnsongrass; POSTEMERGENCE, Rate 250 g/ha): 0
- Plant response rating, Johnsongrass (johnsongrass; PREEMERGENCE, Rate 125 g/ha): 0
- Plant response rating, Johnsongrass (johnsongrass; PREEMERGENCE, Rate 250 g/ha): 0
- Plant response rating, Bermudagrass (bermudagrass; POSTEMERGENCE, Rate 125 g/ha): 0
- Plant response rating, Bermudagrass (bermudagrass; POSTEMERGENCE, Rate 250 g/ha): 0
- Plant response rating, Bermudagrass (bermudagrass; PREEMERGENCE, Rate 125 g/ha): 0
- Plant response rating, Bermudagrass (bermudagrass; PREEMERGENCE, Rate 250 g/ha): 50
- Plant response rating, Purple Nutsedge (purple nutsedge; POSTEMERGENCE): 0
- Plant response rating, Purple Nutsedge (purple nutsedge; PREEMERGENCE): 0
- Plant response rating, Cmn Ragweed (common ragweed; POSTEMERGENCE, Rate 125 g/ha): 20
- Plant response rating, Cmn Ragweed (common ragweed; POSTEMERGENCE, Rate 250 g/ha): 60
- Plant response rating, Cmn Ragweed (common ragweed; PREEMERGENCE, Rate 125 g/ha): 20
- Plant response rating, Cmn Ragweed (common ragweed; PREEMERGENCE, Rate 250 g/ha): 40
- Plant response rating, S. Sandbur (sandbur; POSTEMERGENCE, Rate 125 g/ha): 0
- Plant response rating, S. Sandbur (sandbur; POSTEMERGENCE, Rate 250 g/ha): 0
- Plant response rating, S. Sandbur (sandbur; PREEMERGENCE, Rate 125 g/ha): 0
- Plant response rating, S. Sandbur (sandbur; PREEMERGENCE, Rate 250 g/ha): 0
